Laboratory results as given in ChEMBL document CHEMBL1128867, “Structure-based drug design of nonpeptidic P2 substituents for HIV-1 protease inhibitors” (Bioorg Med Chem Lett, 1995).
pKi: −log10 of the molar value. ≈ marks a conversion by molar mass, not a printed value.

Tests used:
[1] = tested on: CCRF-CEM; assay: Inhibitory activity against CEM cells; format: functional, cell-based; details: Homo sapiens
[2] = target: Human immunodeficiency virus type 1 protease (Human immunodeficiency virus 1, UniProt Q72874); assay: Inhibitory activity HIV-1 protease enzyme
[3] = Oral availability was tested for plasma levels at a dose of 40 mg/kg, after 6 hr of in fed fisher rats.; format: ADME, organism-based; parameters: dose 40 mg/kg; details: Fischer, rat, read-out: Oral availability
[4] = target: Human immunodeficiency virus type 1 protease (Human immunodeficiency virus 1) (UniProt Q72874); assay: Concentration required for the inhibition against HIV-protease enzyme at a dose of 40 mg/kg in fed fisher rats; format: organism-based; parameters: dose 40 mg/kg

CC(C)(C)NC(=O)c1ccccc1C[C@@H](O)[C@H](CSc1ccc2ccccc2c1)NC(=O)c1cccc2[nH]ccc12
IC50 [1]: 6.6 µg/mL (≈ 11.7 µM)
pKi [2]: 6.79

Cc1c(O)cccc1C(=O)N[C@@H](CSc1ccc2ccccc2c1)[C@H](O)Cc1ccccc1C(=O)NC(C)(C)C
IC50 [1]: 0.97 µg/mL (≈ 1.74 µM)
pKi [2]: 8.52

Cc1ccc(O)cc1C(=O)N[C@@H](CSc1ccc2ccccc2c1)[C@H](O)Cc1ccccc1C(=O)NC(C)(C)C
pKi [2]: 6.30

CC(C)(C)NC(=O)c1ccccc1C[C@@H](O)[C@H](CSc1ccc2ccccc2c1)NC(=O)c1cccc2ncccc12
IC50 [1]: 5.7 µg/mL (≈ 9.87 µM)
pKi [2]: 6.95

CC(C)(C)NC(=O)c1ccccc1C[C@@H](O)[C@H](CSc1ccc2ccccc2c1)NC(=O)c1cccc2c1CCN2
IC50 [1]: > 50 µg/mL
pKi [2]: 6.78

Cc1c(O)cccc1C(=O)N[C@@H](Cc1ccccc1)[C@H](O)CN1C[C@H]2CCCC[C@H]2C[C@H]1C(=O)NC(C)(C)C
bioavailability [3]: 44%
IC50 [1]: 0.01 µg/mL (≈ 0.0187 µM)
IC90 [4]: 0.03 µg/mL (≈ 0.056 µM)
pKi [2]: 7.68

CC(C)(C)NC(=O)c1ccccc1C[C@@H](O)[C@H](CSc1ccc2ccccc2c1)NC(=O)c1cccc2cnccc12
IC50 [1]: 16 µg/mL (≈ 27.7 µM)
pKi [2]: 6.10

Cc1ccc(N)cc1C(=O)N[C@@H](CSc1ccc2ccccc2c1)[C@H](O)Cc1ccccc1C(=O)NC(C)(C)C
IC50 [1]: 1.3 µg/mL (≈ 2.34 µM)
pKi [2]: 7.77

CC(C)(C)NC(=O)c1ccccc1C[C@@H](O)[C@H](CSc1ccc2ccccc2c1)NC(=O)c1ccnc2ccccc12
IC50 [1]: 5.6 µg/mL (≈ 9.69 µM)
pKi [2]: 6.58

CC(C)(C)NC(=O)c1ccccc1C[C@@H](O)[C@H](CSc1ccc2ccccc2c1)NC(=O)c1cccc(N)c1Cl
IC50 [1]: 1.5 µg/mL (≈ 2.6 µM)
pKi [2]: 7.80

Cc1c(C(=O)N[C@@H](CSc2ccc3ccccc3c2)[C@H](O)Cc2ccccc2C(=O)NC(C)(C)C)cccc1[N+](=O)[O-]
IC50 [1]: > 50 µg/mL
pKi [2]: 6.27

Cc1c(N)cc(N)cc1C(=O)N[C@@H](CSc1ccc2ccccc2c1)[C@H](O)Cc1ccccc1C(=O)NC(C)(C)C
IC50 [1]: 0.46 µg/mL (≈ 0.806 µM)
pKi [2]: 8.30

Cc1c(N)cccc1C(=O)N[C@@H](CSc1ccc2ccccc2c1)[C@H](O)Cc1ccccc1C(=O)NC(C)(C)C
IC50 [1]: 5 µg/mL (≈ 9 µM)
pKi [2]: 7.31

CC(C)(C)NC(=O)c1ccccc1C[C@@H](O)[C@H](CSc1ccc2ccccc2c1)NC(=O)c1cccc(O)c1Cl
pKi [2]: 7.82

CC(C)(C)NC(=O)c1ccccc1C[C@@H](O)[C@H](CSc1ccc2ccccc2c1)NC(=O)c1cccc(N)c1Br
IC50 [1]: 1.6 µg/mL (≈ 2.58 µM)
pKi [2]: 7.48

CC(C)(C)NC(=O)c1ccccc1C[C@@H](O)[C@H](CSc1ccc2ccccc2c1)NC(=O)c1cccc2c1CCNC2
IC50 [1]: > 50 µg/mL
pKi [2]: 6.74

CC(C)(C)NC(=O)c1ccccc1C[C@@H](O)[C@H](CSc1ccc2ccccc2c1)NC(=O)c1cccc2c1CCCN2
IC50 [1]: 1.9 µg/mL (≈ 3.27 µM)
pKi [2]: 7.62
